Experimental findings from patent publication US10675360B2 (MADRIGAL PHARMACEUTICALS, INC., priority 2014, dated 2020) are described below.

The nature of one series: Stability in mouse plasma. Type of series: in vitro ADME. The following applies: mouse plasma; 1 h, 37° C.
For `CCNC(=O)c1nnc(-c2cc(C(C)C)c(O)cc2O)n1-c1ccc(C(=O)N2CCN(C(=O)COC(=O)OC3(CC)C(=O)OCc4c3cc3n(c4=O)Cc4c-3nc3ccc(O)cc3c4CC)CC2)cc1` (stereo not drawn) [SDC-TRAP-0202, 4,11-diethyl-9-hydroxy-3,14-dioxo-3,4,12,14-tetrahydro-1H-pyrano[3′,4′:6,7]indolizino[1,2-b]quinolin-4-yl (2-(4-(4-(3-(2,4-dihydroxy-5-isopropylphenyl)-5-(ethylcarbamoyl)-4H-1,2,4-triazol-4-yl)benzoyl)piperazin-1-yl)-2-oxoethyl) carbonate], the “% Remaining” value is given as 21.2%. With `CCNC(=O)c1nnc(-c2cc(C(C)C)c(O)cc2O)n1-c1ccc(CN2CCC(C(=O)N3CCC(N(C)C(=O)Oc4ccc5nc6c(c(CC)c5c4)Cn4c-6cc5c(c4=O)COC(=O)C5(O)CC)CC3)CC2)cc1` (stereo not drawn) [SDC-TRAP-0172, 4,11-diethyl-4-hydroxy-3,14-dioxo-3,4,12,14-tetrahydro-1H-pyrano[3′,4′:6,7]indolizino[1,2-b]quinolin-9-yl (1-(1-(4-(3-(2,4-dihydroxy-5-isopropylphenyl)-5-(ethylcarbamoyl)-4H-1,2,4-triazol-4-yl)benzyl)piperidine-4-carbonyl)piperidin-4-yl)(methyl)carbamate], the “% Remaining” value was 74.7%. Consider `CCc1c2c(nc3ccc(O)cc13)-c1cc3c(c(=O)n1C2)COC(=O)C3(CC)OC(=O)N1CCN(Cc2ccc(-n3c(O)nnc3-c3cc(C(C)C)c(O)cc3O)cc2)CC1` (stereo not drawn) [SDC-TRAP-0047, 4,11-diethyl-9-hydroxy-3,14-dioxo-3,4,12,14-tetrahydro-1H-pyrano[3′,4′:6,7]indolizino[1,2-b]quinolin-4-yl 4-(4-(3-(2,4-dihydroxy-5-isopropylphenyl)-5-hydroxy-4H-1,2,4-triazol-4-yl)benzyl)piperazine-1-carboxylate], for which the “% Remaining” value is given as 89%. On to `CCNC(=O)c1nnc(-c2cc(C(C)C)c(O)cc2O)n1-c1ccc2c(ccn2CCC2CCN(C(=O)O[C@]3(CC)C(=O)OCc4c3cc3n(c4=O)Cc4c-3nc3ccc(O)cc3c4CC)CC2)c1` [SDC-TRAP-0208, (S)-4,11-diethyl-9-hydroxy-3,14-dioxo-3,4,12,14-tetrahydro-1H-pyrano[3′,4′:6,7]indolizino[1,2-b]quinolin-4-yl 4-(2-(5-(3-(2,4-dihydroxy-5-isopropylphenyl)-5-(ethylcarbamoyl)-4H-1,2,4-triazol-4-yl)-1H-indol-1-yl)ethyl)piperidine-1-carboxylate], for which the “% Remaining” value amounted to 86.1%. Consider `CCc1c2c(nc3ccc(OC(=O)N4CCCCC4C(=O)N4CCC(CCn5ccc6cc(-n7c(O)nnc7-c7cc(C(C)C)c(O)cc7O)ccc65)CC4)cc13)-c1cc3c(c(=O)n1C2)COC(=O)[C@]3(O)CC` (stereo partly drawn) [SDC-TRAP-0215, (S)-4,11-diethyl-4-hydroxy-3,14-dioxo-3,4,12,14-tetrahydro-1H-pyrano[3′,4′:6,7]indolizino[1,2-b]quinolin-9-yl 2-(4-(2-(5-(3-(2,4-dihydroxy-5-isopropylphenyl)-5-hydroxy-4H-1,2,4-triazol-4-yl)-1H-indol-1-yl)ethyl)piperidine-1-carbonyl)piperidine-1-carboxylate], for which the “% Remaining” value is 77.2%. As to `CCc1c2c(nc3ccc(O)cc13)-c1cc3c(c(=O)n1C2)COC(=O)[C@@]3(CC)OC(=O)N1CCC(CCn2ccc3cc(-n4c(O)nnc4-c4cc(C(C)C)c(O)cc4O)ccc32)CC1` [SDC-TRAP-0064, (S)-4,11-diethyl-9-hydroxy-3,14-dioxo-3,4,12,14-tetrahydro-1H-pyrano[3′,4′:6,7]indolizino[1,2-b]quinolin-4-yl 4-(2-(5-(3-(2,4-dihydroxy-5-isopropylphenyl)-5-hydroxy-4H-1,2,4-triazol-4-yl)-1H-indol-1-yl)ethyl)piperidine-1-carboxylate], the “% Remaining” value came out at 91.5%. On the same count and under the same terms, to `CCNC(=O)c1nnc(-c2cc(C(C)C)c(O)cc2O)n1-c1ccc(CN2CCC(C(=O)N3CCN(C(=O)Oc4ccc5nc6c(c(CC)c5c4)Cn4c-6cc5c(c4=O)COC(=O)C5(O)CC)C(C)C3)CC2)cc1` (stereo not drawn) [SDC-TRAP-0185, 4,11-diethyl-4-hydroxy-3,14-dioxo-3,4,12,14-tetrahydro-1H-pyrano[3′,4′:6,7]indolizino[1,2-b]quinolin-9-yl 4-(1-(4-(3-(2,4-dihydroxy-5-isopropylphenyl)-5-(ethylcarbamoyl)-4H-1,2,4-triazol-4-yl)benzyl)piperidine-4-carbonyl)-2-methylpiperazine-1-carboxylate] belongs 68.1%. Take `CCNC(=O)c1nnc(-c2cc(C(C)C)c(O)cc2O)n1-c1ccc(OC2CCN(C(=O)CN(C)C(=O)Oc3ccc4nc5c(c(CC)c4c3)Cn3c-5cc4c(c3=O)COC(=O)[C@]4(O)CC)CC2)cc1` [SDC-TRAP-0206, (S)-4,11-diethyl-4-hydroxy-3,14-dioxo-3,4,12,14-tetrahydro-1H-pyrano[3′,4′:6,7]indolizino[1,2-b]quinolin-9-yl(2-(4-(4-(3-(2,4-dihydroxy-5-isopropylphenyl)-5-(ethylcarbamoyl)-4H-1,2,4-triazol-4-yl)phenoxy)piperidin-1-yl)-2-oxoethyl)(methyl)carbamate]: the “% Remaining” value worked out at 68.6%. Same read-out and setting: the value for `CCNC(=O)c1nnc(-c2cc(C(C)C)c(O)cc2O)n1-c1ccc(OC2CCN(C(=O)C3CCCCN3C(=O)Oc3ccc4nc5c(c(CC)c4c3)Cn3c-5cc4c(c3=O)COC(=O)[C@]4(O)CC)CC2)cc1` (stereo partly drawn) [SDC-TRAP-0216, (S)-4,11-diethyl-4-hydroxy-3,14-dioxo-3,4,12,14-tetrahydro-1H-pyrano[3′,4′:6,7]indolizino[1,2-b]quinolin-9-yl 2-(4-(4-(3-(2,4-dihydroxy-5-isopropylphenyl)-5-(ethylcarbamoyl)-4H-1,2,4-triazol-4-yl)phenoxy)piperidine-1-carbonyl)piperidine-1-carboxylate] was 67.7%. Take `CCc1c2c(nc3ccc(O)cc13)-c1cc3c(c(=O)n1C2)COC(=O)C3(CC)OC(=O)CN1CCN(c2ccc(-n3c(O)nnc3-c3cc(C(C)C)c(O)cc3O)cc2)CC1` (stereo not drawn) [SDC-TRAP-0056, 4,11-diethyl-9-hydroxy-3,14-dioxo-3,4,12,14-tetrahydro-1H-pyrano[3′,4′: 6,7]indolizino[1,2-b]quinolin-4-yl 2-(4-(4-(3-(2,4-dihydroxy-5-isopropylphenyl)-5-hydroxy-4H-1,2,4-triazol-4-yl)phenyl)piperazin-1-yl)acetate]: the “% Remaining” value was found to be 78%.

Staying with this series, now noted: mouse, plasma, 1 h, 10 μM.
Consider `CCNC(=O)c1nnc(-c2cc(C(C)C)c(O)cc2O)n1-c1ccc(C(=O)N(C)CC(=O)Nc2cccc3c2CN(C2CCC(=O)NC2=O)C3=O)cc1` (stereo not drawn) [SDC-TRAP-0147, 5-(2,4-dihydroxy-5-isopropylphenyl)-4-(4-((2-((2-(2,6-dioxopiperidin-3-yl)-1-oxoisoindolin-4-yl)amino)-2-oxoethyl)(methyl)carbamoyl)phenyl)-N-ethyl-4H-1,2,4-triazole-3-carboxamide], for which the “% Remaining” value is given as 98.1%.

For `CCNC(=O)c1nnc(-c2cc(C(C)C)c(O)cc2O)n1-c1ccc(CN2CCC(C(=O)N(C)CCCOC(=O)Nc3cccc4c3CN(C3CCC(=O)NC3=O)C4=O)CC2)cc1` (stereo not drawn) [SDC-TRAP-0231, 3-(1-(4-(3-(2,4-dihydroxy-5-isopropylphenyl)-5-(ethylcarbamoyl)-4H-1,2,4-triazol-4-yl)benzyl)-N-methylpiperidine-4-carboxamido)propyl (2-(2,6-dioxopiperidin-3-yl)-1-oxoisoindolin-4-yl)carbamate], the “% Remaining” value is on record as 98.3%. Still for that read-out and setting: the value for `CCc1c2c(nc3ccc(O)cc13)-c1cc3c(c(=O)n1C2)COC(=O)C3(CC)OC(=O)N(C)CCCCN1CCN(Cc2ccc(-n3c(O)nnc3-c3cc(C(C)C)c(O)cc3O)cc2)CC1` (stereo not drawn) [SDC-TRAP-0055, 4,11-diethyl-9-hydroxy-3,14-dioxo-3,4,12,14-tetrahydro-1H-pyrano[3′,4′:6,7]indolizino[1,2-b]quinolin-4-yl (4-(4-(4-(3-(2,4-dihydroxy-5-isopropylphenyl)-5-hydroxy-4H-1,2,4-triazol-4-yl)benzyl)piperazin-1-yl)butyl)(methyl)carbamate] was 103%; that for `CC(C)c1cc(-c2nnc(O)n2-c2ccc(CN3CCN(C(=O)c4ccc(COC(=O)Nc5cccc6c5CN(C5CCC(=O)NC5=O)C6=O)cc4)CC3)c(F)c2)c(O)cc1O` (stereo not drawn) [SDC-TRAP-0157, 4-(4-(4-(3-(2,4-dihydroxy-5-isopropylphenyl)-5-hydroxy-4H-1,2,4-triazol-4-yl)-2-fluorobenzyl)piperazine-1-carbonyl)benzyl (2-(2,6-dioxopiperidin-3-yl)-1-oxoisoindolin-4-yl)carbamate] was 81.4%. Turning to `CC(C)c1cc(-c2nnc(O)n2-c2ccc(CC(=O)N(C)CCOC(=O)Nc3cccc4c3CN(C3CCC(=O)NC3=O)C4=O)cc2)c(O)cc1O` (stereo not drawn) [SDC-TRAP-0127, 2-(2-(4-(3-(2,4-dihydroxy-5-isopropylphenyl)-5-hydroxy-4H-1,2,4-triazol-4-yl)phenyl)-N-methylacetamido)ethyl(2-(2,6-dioxopiperidin-3-yl)-1-oxoisoindolin-4-yl)carbamate], the “% Remaining” value was determined as 87.3%. Turning to `CCNC(=O)c1nnc(-c2cc(C(C)C)c(O)cc2O)n1-c1ccc2c(c1)CN(Cc1cc(OC)c(OC(=O)Nc3cccc4c3CN(C3CCC(=O)NC3=O)C4=O)c(OC)c1)C2` (stereo not drawn) [SDC-TRAP-0196], the “% Remaining” value stood at 66.2%. Turning to `CC(C)c1cc(-c2nnc(O)n2-c2ccc(N3CCN(C(=O)c4ccc(COC(=O)Nc5cccc6c5CN(C5CCC(=O)NC5=O)C6=O)cc4)CC3)cc2)c(O)cc1O` (stereo not drawn) [SDC-TRAP-0156, 4-(4-(4-(3-(2,4-Dihydroxy-5-isopropylphenyl)-5-hydroxy-4H-1,2,4-triazol-4-yl)phenyl)piperazine-1-carbonyl)benzyl (2-(2,6-dioxopiperidin-3-yl)-1-oxoisoindolin-4-yl)carbamate], the “% Remaining” value stood at 90.3%. Turning to `CCNC(=O)c1nnc(-c2cc(C(C)C)c(O)cc2O)n1-c1ccc(Oc2ccc(C(=O)N3CCC(COC(=O)Nc4cccc5c4CN(C4CCC(=O)NC4=O)C5=O)CC3)cc2)cc1` (stereo not drawn) [SDC-TRAP-0125, (1-(4-(4-(3-(2,4-Dihydroxy-5-isopropylphenyl)-5-(ethylcarbamoyl)-4H-1,2,4-triazol-4-yl)phenoxy)benzoyl)piperidin-4-yl)methyl (2-(2,6-dioxopiperidin-3-yl)-1-oxoisoindolin-4-yl)carbamate], the “% Remaining” value turned out to be 99.4%.
